Assay results from publication PMC8270301, “Novel Facet of an Old Dietary Molecule? Direct Influence of Caffeine on Glucose and Biogenic Amine Handling by Human Adipocytes” (Molecules, 2021).

Columns and labels:
[1] = target: T1, primary amine oxidase (SSAO/PrAO/VAP-1) (Homo sapiens, UniProt Q16853); assay: Amplex Red hydrogen peroxide assay of benzylamine oxidation in tissue homogenate, Lineweaver-Burk analysis; type: biochemical
T1 construct: gene AOC3; native enzyme in homogenates of human subcutaneous adipose tissue
T1 sequence (Q16853 1-763): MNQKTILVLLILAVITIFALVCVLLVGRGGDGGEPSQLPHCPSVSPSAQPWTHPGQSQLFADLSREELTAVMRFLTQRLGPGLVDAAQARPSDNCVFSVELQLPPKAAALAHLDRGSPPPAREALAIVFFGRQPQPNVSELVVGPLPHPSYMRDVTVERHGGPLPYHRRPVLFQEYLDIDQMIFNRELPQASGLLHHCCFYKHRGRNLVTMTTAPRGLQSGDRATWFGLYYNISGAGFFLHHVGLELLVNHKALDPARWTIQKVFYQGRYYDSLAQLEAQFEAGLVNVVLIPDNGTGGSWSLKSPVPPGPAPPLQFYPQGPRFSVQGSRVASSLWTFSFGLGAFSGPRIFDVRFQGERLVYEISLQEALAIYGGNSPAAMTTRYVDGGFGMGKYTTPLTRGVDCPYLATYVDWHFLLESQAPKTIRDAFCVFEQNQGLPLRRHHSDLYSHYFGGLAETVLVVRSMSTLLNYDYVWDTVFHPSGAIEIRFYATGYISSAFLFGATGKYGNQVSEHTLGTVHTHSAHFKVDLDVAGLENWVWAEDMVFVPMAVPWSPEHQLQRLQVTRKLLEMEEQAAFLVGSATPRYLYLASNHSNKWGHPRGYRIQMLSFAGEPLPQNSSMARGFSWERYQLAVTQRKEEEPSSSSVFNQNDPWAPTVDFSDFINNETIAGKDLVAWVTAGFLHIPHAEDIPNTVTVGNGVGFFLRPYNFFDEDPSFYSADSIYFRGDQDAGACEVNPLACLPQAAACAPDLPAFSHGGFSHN

[2] = target: T1, primary amine oxidase (SSAO/PrAO/VAP-1); assay: Amplex Red hydrogen peroxide release in tissue homogenate, Lineweaver-Burk plot; type: cell-based

Compound	Ki [1] [µM]	Amplex Red hydrogen peroxide release in tissue homogenate, Lineweaver-Burk plot [2]
Cn1c(=O)c2c(ncn2C)n(C)c1=O [caffeine, 1,3,7-trimethylxanthine]	880	–
NCc1ccccc1 [benzylamine]	–	Lineweaver–Burk plot of the inhibition of benzylamine oxidation by increasing doses of caffeine
